In experiment [1] the test system is meristem-regenerated shoots of Citrus aurantifolia. The experiment can be described thus: Root induction in meristem-regenerated shoots of Citrus aurantifolia. The class given is cell-based. To be noted: 0.25 mg l^-1 of the auxin, used with 1 mg l^-1 chlorogenic acid. An excerpt:
(§1) h) rooting of the isolated well-developed shoots of C. aurantifolia to the extent of 100% in 15 days, and of C. sinensis to the extent of 90% in 25 days, in agarified media-E and F respectively.
The meristem-regenerated well-developed shoots of C. aurantifolia easily rooted in medium-E (Table I) selected on the basis of the formulations used earlier during the investigations on Citrus tissue culture in this Laboratory (Chaturvedi, H. C. 1979. Tissue culture of economic plants. In: Progress in Plant Research. Eds. T. N. Khoshoo and P. K. K. Nair, Today and Tomorrow's Publisher, New Delhi, Vol.1, pp.265-288; Chaturvedi, H. C. and Sharma, A. K. 1988. Citrus tissue culture. In: Proc. Natl. Seminar on Plant Tissue Culture, I.C.A.R., New Delhi, pp.36-46). The basic differences of the root inducing media from the shoot proliferation media of Citrus are, comparatively lower concentrations of nitrogen, calcium and magnesium in the former. […] Even its shoots raised from seedling explants have been reported to be intractable-to-root in vitro (Duran-vila, N., Ortega, V. and Navarro, L. 1989. Morphogenesis and tissue cultures of three citrus species. Plant Cell, Tissue and Organ Culture, 16: 123-133).

Experiment [2] deals with meristem-regenerated shoots of C. sinensis. Kind of experiment: Root induction in meristem-regenerated shoots of C. sinensis. To be noted: same treatments as for C. aurantifolia (0.25 mg l^-1 auxin, 1 mg l^-1 chlorogenic acid). Type of experiment: cell-based, Citrus sinensis.
From the text: as §1
The medium-E, which was found effective for inducing desirable rooting in a number of Citrus species, including its rootstocks, when was found deficient for promoting root induction in the presence of multiple combinations of auxins, viz., IAA. IPA, IBA and NAA without or with phenolic acids, namely, phloroglucinol and chlorogenic acid, it was variously modified. The modifications included, increase in the concentrations of thiamine-HCl, pyridoxine-HCl and nicotinic acid to 2.5, 0.5 and 0.5 mg 1^−1, respectively, addition of some other root promoting vitamins, like, riboflavin, folic acid and d-biotin at the concentration of 0.1 mg 1^−1 each as also 15 mg 1^−1 L-arginine.
The rooting responses of well-developed isolated shoots of C. sinensis to various auxins used without and with phenolic acids employing the medium-E (Table I) devoid of auxins and the phenolic acid as the basal medium, are presented in Table 3. A combination of three auxins, namely, IAA, NAA and IPA along with a phenolic acid, namely, chlorogenic acid or phloroglucinol was essential for root induction.

Experiment [3] concerns excised shoot meristems of Citrus aurantifolia and C. sinensis. Kind of experiment: Growth of excised shoot meristems, both Citrus species not distinguished. Type of experiment: cell-based. An excerpt: e) excising the meristem domes along with youngest 2-3 leaf primordia ranging in length between 0.2-0.5 mm from the aseptically grown shoots followed by their culture on the liquid medium-C under the same controlled light and temperature conditions as in step (c) at least for a period of 15 days to let them attain a length of ca. 8 mm, f) subculturing the meristem-regenerated shoots on filter paper bridge employing liquid medium-D in order to obtain healthy shoots of an average length of about 1.5 cm without intervening callusing within a period of 20-25 days, Since for growth, an excised shoot meristem may require exogenous supply of mainly three growth hormones, viz., a cytokinin, an auxin and a gibberellin, these were provided individually at 3 concentrations (mg 1^−1) each and in certain combinations as given below using the medium-C (Table I) devoid of IAA and GA as the basal medium: 0.1 BAP; 0.25 BAP; 0.5 BAP; 0.1 IAA; 0.25 IAA; 0.5 IAA: 5 GA; 10 GA; 15 GA; 0.1 BAP+0.1 IAA; 0.25 BAP+0.1 IAA; 0.5 BAP+0.1 IAA; 5 GA+0.1 IAA; 10 GA+0.1 IAA and 15 GA+0.1 IAA. […] In the next step, on the basis of the responses obtained, shoot meristems were cultured in all the afore-said 3 concentrations of BAP (0.1, 0.25 and 0.5 mg 1^−1) or GA (5, 10 and 15 mg 1^−1) along with 0.1 mg 1^−1 IAA. […] In this treatment, growth of meristem on nutrient agar as well as in liquid medium using filter paper bridge was compared. Shoot meristems grew far better on filter paper bridge than on nutrient agar in the same treatment (table 3). […] Higher or lower than 0.1 mg 1^−1 concentrations of BAP were not conducive to normal growth of shoot meristems.

Experiment [4] relates to isolated shoots of Citrus aurantifolia. The experiment can be described thus: Proliferation of isolated shoots of Citrus aurantifolia. Type of experiment: cell-based. As to conditions: for Condition of shoots / Growth of regenerated shoots Length in cm: 30 days; for No. of off-shoots regenerated: culture period 30 days, mean of 5 cultures ± S.E. The text has this:
(§2) g) proliferating the meristem-regenerated 1.5-cm-long shoots of C. aurantifolia and C. sinensis by repeated subculture in medium-A and medium-B, respectively to obtain well-developed shoots to the extent of an average 10 shoots and 6 shoots, respectively, within 4 subcultures of 30 days each,
(§3) Proliferation of Isolated Shoots Obtained from Regenerated Nodal Stem Segments of Mature Field-grown Trees of Citrus aurantifolis and C. sinensis
(§4) Proliferation of isolated shoots was obtained in presence of BAP and an auxin, LAA or NAA employing the medium-A (Table I) for C. aurantifolia, and medium-B (Table I) for C. sinensis, but not vice-versa, where both media A and B, devoid of growth hormones comprised the basal media. […] Responses of the isolated shoots to some selected combinations of BAP with IAA or NAA are given in the Table 1, which lead to the selection of specific nutrient media for optimum proliferation of shoots of these two Citrus species.
The maximum number of offshoots produced per explant of a shoot tip of C. aurantifolia was 7 in 0.75 mg 1^−1 BAP and 0.25 mg 1^−1 IAA, however, the shoots not only were restricted in growth, but also substantial intervening callus was formed. Similarly, in the concentrations of 0.5 and 1.0 mg 1^−1 BAP, particularly the second aspect of response remained equally prominent, i.e., growth restriction of offshoots and intervening callusing during their differentiation. […] Thus, the 0.25 mg 1^−1 concentration of both BAP and IAA was selected comprising the medium-A for proliferation of isolated shoots originally regenerated from nodal stem segments of mature field-grown trees of C. aurantifolia.

For experiment [5], the system named is isolated shoots of C. sinensis. The experiment can be described thus: Proliferation of isolated shoots of C. sinensis. The class given is cell-based, Citrus sinensis. As to conditions: for Condition of shoots / Growth of regenerated shoots Length in cm: 30 days; for No. of off-shoots regenerated: culture period 30 days, mean of 5 cultures ± S.E.
From the text: as §2, §3, §4
Likewise, 0.25 mg 1^−1 concentration of BAP and 0.5 mg 1^−1 of NAA were selected comprising the medium-B for optimum proliferation of shoots of C. sinensis in view of the same two criteria, viz., moderately high number of offshoot production with good growth and their differentiation without any intervening callusing.

The mark [6] stands for this setting: individually at lower concentrations: IAA 0.1 mg l^-1 or GA 5 mg l^-1.
[7] abbreviates: BAP (0.1, 0.25, 0.5 mg l^-1) or GA (5, 10, 15 mg l^-1) along with 0.1 mg l^-1 IAA.

Where “and” joins values, the source holds several entries; their conditions need not be identical. Equal values may be shown once.

Turning to `O=C(O)Cc1c[nH]c2ccccc12` [IAA, indole-3-acetic acid], the rooting entry in experiment [1] is recorded as “Hundred percent”; in experiment [2], “did not root”. Moreover, the “response of shoot meristems” value in experiment [3] (setting [6]) is “remained fresh with a little increase in their length”.
For `C=C1C[C@]23C[C@@]1(O)CC[C@H]2[C@@]12C=C[C@H](O)[C@@](C)(C(=O)O1)[C@H]2[C@@H]3C(=O)O` [GA, gibberellic acid], the “response of shoot meristems” value in experiment [3] (setting [7]) was “registered some growth”; in experiment [3] (setting [6]), “remained fresh with a little increase in their length”.
For `O=C(O)CCc1c[nH]c2ccccc12` [IPA, indole-3-propionic acid], the results for the rooting result in experiment [1] and in experiment [2] were “Hundred percent” and “did not root”, respectively.
In the same order, the values of `O=C(O)CCCc1c[nH]c2ccccc12` [IBA, indole-3-butyric acid] are “Hundred percent” and “did not root”.
For `O=C(O)Cc1cccc2ccccc12` [NAA, α-naphthalene-acetic acid], the rooting result is “Hundred percent” in experiment [1] and “did not root” in experiment [2].
Take `c1ccc(CNc2ncnc3nc[nH]c23)cc1` [BAP, 6-benzylaminopurine]: the Condition of shoots entry in experiment [4] (BAP 0.1 mg l^-1 with 0.25 IAA) is on record as “A few well-develop-”; in experiment [4] (BAP 0.25 mg l^-1 with 0.25 IAA), “Well-developed”; in experiment [5] (BAP 0.1 mg l^-1 with 0.5 NAA), “A few well-”; in experiment [5] (BAP 0.25 mg l^-1 with 0.5 NAA), “Well-developed”; in experiment [5] (BAP 0.5 mg l^-1 with 0.5 NAA), “Well-developed”. Besides, the “Growth of regenerated shoots Length in cm” value in experiment [4] (BAP 0.1 mg l^-1 with 0.25 IAA) amounted to 1.44 ± 0.14 cm; in experiment [4] (BAP 0.25 mg l^-1 with 0.25 IAA), 1.40 ± 0.13 cm; in experiment [4] (BAP 0.5 mg l^-1 with 0.25 IAA), 0.99 ± 0.10 cm; in experiment [4] (BAP 0.75 mg l^-1 with 0.25 IAA), 0.86 ± 0.08 cm; in experiment [4] (BAP 1.0 mg l^-1 with 0.25 IAA), 0.76 ± 0.10 cm; in experiment [5] (BAP 0.1 mg l^-1 with 0.5 NAA), 1.16 ± 0.27 cm. Besides, the “Growth of regenerated shoots Length in cm” value in experiment [5] (BAP 0.25 mg l^-1 with 0.5 NAA) is given as 1.65 ± 0.20 cm; in experiment [5] (BAP 0.5 mg l^-1 with 0.5 NAA) it was 1.08 ± 0.12 cm; in experiment [5] (BAP 0.75 mg l^-1 with 0.5 NAA) it was 0.78 ± 0.10 cm; in experiment [5] (BAP 1.0 mg l^-1 with 0.5 NAA), 0.75 ± 0.08 cm. The “No. of off-shoots regenerated” value is 3.6 ± 0.40 in experiment [4] (BAP 0.1 mg l^-1 with 0.25 IAA); 5.8 and 5.8 ± 0.58 in experiment [4] (BAP 0.25 mg l^-1 with 0.25 IAA); 5.4 ± 1.02 in experiment [4] (BAP 0.5 mg l^-1 with 0.25 IAA); 7 and 7.0 ± 0.44 in experiment [4] (BAP 0.75 mg l^-1 with 0.25 IAA); 5.6 ± 1.40 in experiment [4] (BAP 1.0 mg l^-1 with 0.25 IAA); 1.8 ± 0.37 in experiment [5] (BAP 0.1 mg l^-1 with 0.5 NAA). For the same molecule, the “No. of off-shoots regenerated” value was 2.6 and 2.6 ± 0.24 in experiment [5] (BAP 0.25 mg l^-1 with 0.5 NAA); 3.4 ± 0.44 in experiment [5] (BAP 0.5 mg l^-1 with 0.5 NAA); 3.2 ± 0.73 in experiment [5] (BAP 0.75 mg l^-1 with 0.5 NAA); 2.0 ± 0.31 in experiment [5] (BAP 1.0 mg l^-1 with 0.5 NAA). Also, the “response of shoot meristems” value in experiment [3] (setting [7]) was “became abnormally thick”. Also, the “delay of necrosis of shoot meristem” value in experiment [3] (BAP individually, particularly 0.1 mg l^-1) is 10 to 15 days.
